Data on one substance can be found in patent publication US12296018B2, “Albumin binding peptide-drug (AlBiPeD) conjugates and methods of making and using same” (priority 2018, dated 2025).

Several values for one entry are separate records, joined by “and”; a condition that tells them apart may be missing. Equal values may be shown once. Entries after “also recorded” stand apart in the source; their conditions may differ.

A short description of data set [1]: Aqueous solubility. It is filed as physicochemical. As to conditions: pH 7.4 PBS. How it is done: To remove the ELP160 tag, the KEKE-ELP160-srt-ABD-Dox conjugate was buffer exchanged into sortase reaction buffer, and was reacted with (His)6-sortase A-ELP40 in the presence of a 50 fold molar excess of triglycine (FIG. 2A). The efficiency of the sortase reaction, defined as the percent conversion of ELP-ABD-Dox substrate to ABD-Dox, was determined by size exclusion HPLC and was calculated to be ≥85% (FIG. 3A). The ABD-Dox product was then separated from (His)6-sortase A-ELP40, the cleaved KEKE-ELP160 tag, and unreacted KEKE-ELP160-srt-ABD-Dox in the sortase reaction solution by preparative size exclusion chromatography (SEC). The number of Dox molecules conjugated per ABD (Dox/ABD molar ratio) was measured before the sortase reaction by dissolving the lyophilized KEKE-ELP160-srt-ABD-Dox conjugate in PBS and calculating the moles of KEKE-ELP160-srt-ABD-Dox and Dox gravimetrically and spectrophotometrically at 488 nm, respectively. 3-4 Dox molecules were attached to each KEKE-ELP160-srt-ABD-(CGG)8. However, following removing the ELP160 tag, the resulting ABD-Dox conjugate was too hydrophobic and insoluble in pH 7.4 PBS because of the high number of conjugated Dox molecules. […] Formulation of AlDox in acidic pH, however, is undesirable as it can trigger the premature, in vitro degradation of the hydrazone bond between Dox and EMCH, converting AlDox back to free Dox.

Data set [2] addresses T1, human serum albumin (HSA) (Homo sapiens, UniProt P02768).
T1 construct: purchased Sigma-Aldrich (St. Louis, MO)
In words: Native-PAGE mobility shift with HSA. It counts as binding. The conditions noted are these: 1:1 molar ratio. How it is done: (§1) The gel was stained with SimplyBlue stain according to the manufacturer's instructions and imaged using the Gel Doc imaging system (Bio-Rad, Hercules, CA). Isothermal titration calorimetry was done using a standard volume Nano ITC from TA instruments (Lindon, Utah). […] The calorimetric data were analyzed by NanoAnalyze software (TA instruments, Lindon, UT) and were fit to an independent binding site model to compute the thermodynamic parameters including dissociation constant (KD), binding stoichiometry (n), enthalpy (ΔH), and entropy (ΔS).

The target in data set [3] is T1, human serum albumin (HSA). In words: Isothermal titration calorimetry of ABD-Dox with HSA. It is filed as binding. The conditions noted are these: ITC, 37° C., PBS. The protocol: as §1
Data set [4] has as its system C26 colon carcinoma tumors. In words: In vivo tumor regression, syngeneic C26 model. The arrangement: species or system BALB/c mice. How it is done:
In vivo tumor regression For in vivo tumor implantation, C26 cells at 5×10^5 cells in 30 μL Minimum Essential Medium (MEM) (Invitrogen, Carlsbad, CA) and MIA PaCa-2 cells at 2×10^6 cells in 50 μL 10:90 v/v MEM: Matrigel matrix (Corning Inc, Corning, New York) were inoculated in the right flank of normal and athymic nude BALB/c mice, respectively. Tumor cells were allowed to grow until the tumor volume, calculated as π/6×length×width^2, reached 75-100 mm^3 for C26 tumors and 100-125 mm^3 for MIA PaCa-2 tumors. Tumor bearing mice were then treated with ABD-Dox at 10 and 20 mg Dox Equiv.kg^−1 BW, AlDox at 20 mg Dox Equiv.kg^−1 BW, and free Dox at 10 mgkg^−1 BW. Tumor volumes and body weights were monitored for 100 days after treatment and mice displaying excessive tumor volume (>[…]), body weight loss (>15%), or ill health were euthanized. Tumor growth and survival data were analyzed by GraphPad Prism software. Survival curves were generated with the Kaplan-Meier method and compared with the log-rank (Mantel-Cox) test. Tumor growth data were compared with a paired one-way ANOVA followed by Tukey-Kramer (Tukey's) post-hoc test. P<0.05 was considered as statistically significant.
For in vivo tumor regression studies, a single dose of ABD-Dox was injected via tail vein at 10 mg Dox Equiv.kg^−1 BW (MTD of free Dox) and 20 mg Dox Equiv.kg^−1 BW (MTD of ABD-Dox) in separate cohorts of BALB/c mice with s.c. C26 tumors or nude mice with s.c. MIA Paca-2 tumors. Free Dox was injected at its MTD of 10 mgkg-1 BW, and AlDox was injected at 20 mg Dox Equiv.kg^−1 BW, a dose that was reported to be safe in previous studies. All animals were injected when the tumors were 75-100 mm; in size for C26 tumors and 100-125 mm^3 for MIA PaCa-2 tumors.

Data set [5] can be described thus: pH-dependent Dox release from ABD-Dox conjugate (size exclusion HPLC). It counts as physicochemical. How it is done:
Drug release Dox release from the ABD-Dox conjugate was measured at pH 7.4 and 5.0, corresponding to the physiological pH and late endosomal pH, respectively. ABD-Dox in PBS (400 μM Dox Equiv.) was diluted with an equal volume of either 0.1 M Na—PO4, pH 7.4 buffer, 0.1 M Na-acetate, pH 5.0 buffer, incubated at 37° C. for 0, 0.25, 0.5, 1, 2, 4, 6, and 24 h, and neutralized using an equal volume of 0.1 M Na—PO4, pH 7.4 buffer. Samples were then analyzed by size exclusion HPLC using the same chromatography conditions as described above for the characterization of Dox conjugates and the percentage of released Dox was calculated by integrating the area under the peak corresponding to unbound Dox. The cumulative percent released Dox (F %, released) versus time was fit to a first order release model: F %, released=a[1−exp(−ln(2)t/t1/2)] where t is the time (h) after incubation, tia is the half-maximal release time (h), and a (%) is the maximum extent of drug release, using GraphPad Prism software (GraphPad, San Diego, CA).

The target of data set [6] is T2, mouse serum albumin (MSA) (Mus musculus, UniProt P07724).
T2 construct: purchased Sigma-Aldrich (St. Louis, MO)
T2 sequence (P07724 25-608): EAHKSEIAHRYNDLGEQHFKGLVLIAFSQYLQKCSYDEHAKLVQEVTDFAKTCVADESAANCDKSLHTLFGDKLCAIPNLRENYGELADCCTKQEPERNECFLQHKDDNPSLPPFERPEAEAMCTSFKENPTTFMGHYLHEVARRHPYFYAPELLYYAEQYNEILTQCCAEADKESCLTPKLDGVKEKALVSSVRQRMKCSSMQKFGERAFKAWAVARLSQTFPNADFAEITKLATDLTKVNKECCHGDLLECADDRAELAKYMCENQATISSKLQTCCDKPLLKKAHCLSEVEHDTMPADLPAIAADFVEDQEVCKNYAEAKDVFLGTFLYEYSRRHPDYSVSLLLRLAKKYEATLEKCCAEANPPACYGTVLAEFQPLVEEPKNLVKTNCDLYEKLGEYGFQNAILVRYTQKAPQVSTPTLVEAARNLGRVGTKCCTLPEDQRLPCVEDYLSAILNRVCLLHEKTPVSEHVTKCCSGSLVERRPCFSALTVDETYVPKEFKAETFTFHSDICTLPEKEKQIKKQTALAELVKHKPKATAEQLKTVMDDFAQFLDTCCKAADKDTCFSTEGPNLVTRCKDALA
Briefly: Isothermal titration calorimetry of ABD-Dox with MSA. The conditions noted are these: ITC, 37° C., PBS. It counts as binding. How it is done:
as §1

The mark [7] stands for this setting: single dose 10 mg Dox Equiv.kg^−1 BW.
Where [8] appears, read: single dose 20 mg Dox Equiv.kg^−1 BW.

Consider “ABD-Dox (GLAEAKVLANRELDKYGVSDYYKNLINNAKTVEGVKALIDEILAALPCGGCGGCGGCGG)”, for which, in data set [1], the aqueous solubility entry is “up to 4 mg Dox Equiv.mL^−1”. The “binding to HSA by mobility shift” value in data set [2] is on record as “confirmed binding”. In data set [3], this substance yielded a ΔH of -6.72 kcal/mol and a ΔS of 41.5 Jmol^−1K^−1. In data set [3] (independent binding site model), the “n (binding stoichiometry)” value was 1.03 and 1.0. In data set [4] (10 mg Dox Equiv.kg^−1 BW), the tumor disappearance entry is “complete tumor disappearance within 2 weeks” and the “tumor recurrence in mice with eradicated tumors” value turned out to be 33%. Moreover, in data set [4] (20 mg Dox Equiv.kg^−1 BW), the “eradication of C26 tumors” value was “incomplete eradication”, the “mice that did not survive over the 100-day course of study” value was found to be 75%, the “recurrence of the primary tumor” value was “without recurrence of the primary tumor in any mice” and the “therapeutic efficacy vs AlDox in terms of overall survival” value is given as “higher”. The “therapeutic efficacy vs AlDox with respect to tumor regression” value in data set [4] (20 mg Dox Equiv.kg^−1 BW) is reported as “equivalent”. For the same substance, in data set [4] (setting [7]), the “survival compared with free Dox (10 mgkg^−1 BW)” value was “superior efficacy” and the “tumor regression compared with free Dox (10 mgkg^−1 BW)” value is on record as “superior efficacy”. For the same substance, in data set [4] (setting [8]), the “survival compared with free Dox (10 mgkg^−1 BW)” value is reported as “superior efficacy” and the “tumor regression compared with free Dox (10 mgkg^−1 BW)” value is listed as “superior efficacy”. Moreover, the drug released entry in data set [5] (pH 5.0, over 24 h, 37° C.) was “about 70%”. In data set [5] (pH 7.4, 37° C.), the Dox release entry was “negligible; also recorded: low, basal level of release”. In data set [6], the ΔH was -4.45 kcal/mol and the ΔS was 76.6 Jmol^−1K^−1. Further, the “n (binding stoichiometry)” value in data set [6] (independent binding site model) is 0.94 and 0.9.
